Bounds are passed on as bounds.

In patent US20230135152A1 (ACURASTEM INCORPORATED, priority 2020, published 2023) one finds IC50 and EC50 data, which are given here for 27 compounds.

T1 sequence (Q9Y2I7 whole entry): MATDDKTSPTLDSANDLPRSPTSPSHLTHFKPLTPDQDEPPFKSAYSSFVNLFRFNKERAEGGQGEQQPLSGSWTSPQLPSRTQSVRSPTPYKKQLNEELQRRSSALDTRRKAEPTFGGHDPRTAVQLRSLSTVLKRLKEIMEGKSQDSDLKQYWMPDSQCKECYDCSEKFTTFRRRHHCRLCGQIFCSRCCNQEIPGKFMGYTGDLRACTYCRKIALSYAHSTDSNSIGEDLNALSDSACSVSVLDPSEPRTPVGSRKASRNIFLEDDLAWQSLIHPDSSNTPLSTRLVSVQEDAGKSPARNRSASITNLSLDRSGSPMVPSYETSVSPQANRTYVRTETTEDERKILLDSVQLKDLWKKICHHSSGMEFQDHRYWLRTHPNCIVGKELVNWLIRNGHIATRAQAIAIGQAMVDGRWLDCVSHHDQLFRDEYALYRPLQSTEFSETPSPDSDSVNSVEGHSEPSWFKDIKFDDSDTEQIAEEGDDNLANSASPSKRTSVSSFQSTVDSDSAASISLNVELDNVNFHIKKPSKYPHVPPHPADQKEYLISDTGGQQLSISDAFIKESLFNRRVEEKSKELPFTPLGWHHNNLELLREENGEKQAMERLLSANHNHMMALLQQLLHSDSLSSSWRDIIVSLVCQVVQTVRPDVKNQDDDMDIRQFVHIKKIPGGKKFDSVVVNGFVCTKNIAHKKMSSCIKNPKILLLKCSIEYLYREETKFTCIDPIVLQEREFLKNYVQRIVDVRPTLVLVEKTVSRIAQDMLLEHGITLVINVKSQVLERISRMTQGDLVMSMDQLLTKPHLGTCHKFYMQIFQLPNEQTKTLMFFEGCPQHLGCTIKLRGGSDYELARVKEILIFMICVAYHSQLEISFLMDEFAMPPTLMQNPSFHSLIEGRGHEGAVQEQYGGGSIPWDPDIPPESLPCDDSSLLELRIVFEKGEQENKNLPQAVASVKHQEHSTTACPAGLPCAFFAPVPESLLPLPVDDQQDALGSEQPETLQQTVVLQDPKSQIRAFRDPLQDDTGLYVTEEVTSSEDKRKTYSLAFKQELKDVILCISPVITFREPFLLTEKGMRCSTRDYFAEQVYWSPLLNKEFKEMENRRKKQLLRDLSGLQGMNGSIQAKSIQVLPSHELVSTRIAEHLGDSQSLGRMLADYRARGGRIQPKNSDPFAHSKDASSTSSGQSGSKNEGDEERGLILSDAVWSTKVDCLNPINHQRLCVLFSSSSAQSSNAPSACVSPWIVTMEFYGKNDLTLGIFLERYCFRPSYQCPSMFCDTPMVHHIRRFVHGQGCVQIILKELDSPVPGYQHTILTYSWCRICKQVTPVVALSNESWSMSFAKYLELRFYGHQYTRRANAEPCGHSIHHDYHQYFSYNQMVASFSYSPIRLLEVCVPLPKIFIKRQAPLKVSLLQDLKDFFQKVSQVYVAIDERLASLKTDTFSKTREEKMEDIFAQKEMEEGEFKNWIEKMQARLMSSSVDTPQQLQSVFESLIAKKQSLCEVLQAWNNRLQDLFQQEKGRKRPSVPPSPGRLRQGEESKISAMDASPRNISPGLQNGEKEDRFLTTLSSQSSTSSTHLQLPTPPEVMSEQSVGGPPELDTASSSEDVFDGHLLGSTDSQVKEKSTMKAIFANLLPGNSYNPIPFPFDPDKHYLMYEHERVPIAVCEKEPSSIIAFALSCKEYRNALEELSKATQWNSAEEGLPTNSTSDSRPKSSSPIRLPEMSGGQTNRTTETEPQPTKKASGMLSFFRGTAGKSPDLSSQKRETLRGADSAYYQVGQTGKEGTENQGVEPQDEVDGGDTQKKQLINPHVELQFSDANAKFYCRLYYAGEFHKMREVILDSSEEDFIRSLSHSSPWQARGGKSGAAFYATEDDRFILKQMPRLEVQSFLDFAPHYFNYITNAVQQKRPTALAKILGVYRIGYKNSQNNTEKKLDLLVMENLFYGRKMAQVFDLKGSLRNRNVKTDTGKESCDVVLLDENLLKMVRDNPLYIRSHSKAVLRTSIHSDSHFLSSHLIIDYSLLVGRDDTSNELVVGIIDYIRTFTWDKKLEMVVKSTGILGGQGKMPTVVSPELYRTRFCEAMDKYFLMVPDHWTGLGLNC

One test concerns the target T1, PIKFYVE (Homo sapiens, UniProt Q9Y2I7). Description: PIKFYVE assay (luciferase ADP-Glo kinase assay, Promega). The test is classed as biochemical. As to conditions: Table 2. As to the method:
The activity of Compounds 1-20 was measured using a PIKFYVE assay (luciferase ADP-Glo kinase assay available from Promega Corp. of Madison, Wis.).
The activity of Compounds 39-90 was also measured using a PIKFYVE assay (luciferase ADP-Glo kinase assay available from Promega Corp. of Madison, Wis.).
The activity of Compounds 93-347 was also measured using a PIKFYVE assay (luciferase ADP-Glo kinase assay available from Promega Corp. of Madison, Wis.).
For orientation: IC50 means the concentration that gives 50% inhibition. A low value points to inhibition by little substance. Turning to `Cc1cccc(-c2ccn(-c3cc(N4CCOCC4)nc(OC[C@@H](O)c4ccccc4)n3)n2)c1` (single isomer, unassigned) [Compound 57], the 50% inhibitory concentration (IC50) was < 5 nM.

The test is the same for the next values; noted with them: Table 3.
The compound `COC(CO)c1nc(N2CCOCC2)cc(-n2ccc(-c3cccc(C)c3)n2)n1` (racemic) [Compound 156, 2-methoxy-2-(4-morpholino-6-(3-(m-tolyl)-1H-pyrazol-1-yl)pyrimidin-2-yl)ethan-1-ol] showed an IC50 of 3 to 10 nM. As to `CN(C)Cc1ccc2nn(-c3cc(N4CCOCC4)nc(OCCc4cnn(C)c4)n3)cc2c1` [Compound 253, N,N-dimethyl-1-(2-(2-(2-(1-methyl-1H-pyrazol-4-yl)ethoxy)-6-morpholinopyrimidin-4-yl)-2H-indazol-5-yl)methanamine], the half-inhibitory concentration (IC50) was 10 to 100 nM. As for `Cc1c2cc(CN(C)C)ccc2nn1-c1cc(N2CCOCC2)nc(OCCc2cnn(C)c2)n1` [Compound 254, N,N-dimethyl-1-(3-methyl-2-(2-(2-(1-methyl-1H-pyrazol-4-yl)ethoxy)-6-morpholinopyrimidin-4-yl)-2H-indazol-5-yl)methanamine], the IC50 lay in the range of 100 to 5000 nM. Still for that read-out and setting: under `Cc1c2ccc(CO)cc2nn1-c1cc(N2CCOCC2)nc(OCCc2cnn(C)c2)n1` [Compound 255, (3-methyl-2-(2-(2-(1-methyl-1H-pyrazol-4-yl)ethoxy)-6-morpholinopyrimidin-4-yl)-2H-indazol-6-yl)methanol] stands 10 to 100 nM. The compound `CO[C@H](CO)c1nc(N2CCOCC2)cc(-n2ccc(-c3cccc(C)c3C)n2)n1` [Compound 264, (S)-2-(4-(3-(2,3-dimethylphenyl)-1H-pyrazol-1-yl)-6-morpholinopyrimidin-2-yl)-2-methoxyethan-1-ol] yielded an IC50 of 100 to 5000 nM. The compound `CO[C@@H](CO)c1nc(N2CCOCC2)cc(-n2ccc(-c3cccc(C)c3C)n2)n1` [Compound 265, (R)-2-(4-(3-(2,3-dimethylphenyl)-1H-pyrazol-1-yl)-6-morpholinopyrimidin-2-yl)-2-methoxyethan-1-ol] returned an IC50 of 100 to 5000 nM. The same measure, in the same setting: then `CO[C@H](CO)c1nc(N2CCOCC2)cc(-n2ccc(-c3cccc4c3OCO4)n2)n1` [Compound 266, (S)-2-(4-(3-(benzo[d][1,3]dioxol-4-yl)-1H-pyrazol-1-yl)-6-morpholinopyrimidin-2-yl)-2-methoxyethan-1-ol], with 100 to 5000 nM; and `CO[C@@H](CO)c1nc(N2CCOCC2)cc(-n2ccc(-c3cccc4c3OCO4)n2)n1` [Compound 267, (R)-2-(4-(3-(benzo[d][1,3]dioxol-4-yl)-1H-pyrazol-1-yl)-6-morpholinopyrimidin-2-yl)-2-methoxyethan-1-ol], with 10 to 100 nM. Regarding `CO[C@H](CO)c1nc(N2CCOCC2)cc(-n2ccc(-c3cccc4c3COC4)n2)n1` [Compound 270, (S)-2-(4-(3-(1,3-dihydroisobenzofuran-4-yl)-1H-pyrazol-1-yl)-6-morpholinopyrimidin-2-yl)-2-methoxyethan-1-ol], the IC50 was 100 to 5000 nM. As for `CO[C@@H](CO)c1nc(N2CCOCC2)cc(-n2ccc(-c3cccc4c3COC4)n2)n1` [Compound 271, (R)-2-(4-(3-(1,3-dihydroisobenzofuran-4-yl)-1H-pyrazol-1-yl)-6-morpholinopyrimidin-2-yl)-2-methoxyethan-1-ol], the half-inhibitory concentration (IC50) was in the range of 100 to 5000 nM. The same measure, in the same setting: under `CO[C@H](CO)c1nc(N2CCOCC2)cc(-n2nc(-c3cnc4ccccn34)cc2C)n1` [Compound 280, (S)-2-(4-(3-(imidazo[1,2-a]pyridin-3-yl)-5-methyl-1H-pyrazol-1-yl)-6-morpholinopyrimidin-2-yl)-2-methoxyethan-1-ol] stands 100 to 5000 nM.

Consider `CO[C@@H](CO)c1nc(N2CCOCC2)cc(-n2nc(-c3cnc4ccccn34)cc2C)n1` [Compound 281, (R)-2-(4-(3-(imidazo[1,2-a]pyridin-3-yl)-5-methyl-1H-pyrazol-1-yl)-6-morpholinopyrimidin-2-yl)-2-methoxyethan-1-ol], for which the IC50 fell in the range of 100 to 5000 nM. Same read-out and setting: under `CO[C@H](CO)c1nc(N2CCOCC2)cc(-n2ccc(-c3cnc4ccccn34)n2)n1` [Compound 282, (S)-2-(4-(3-(imidazo[1,2-a]pyridin-3-yl)-1H-pyrazol-1-yl)-6-morpholinopyrimidin-2-yl)-2-methoxyethan-1-ol] stands 100 to 5000 nM; under `CO[C@@H](CO)c1nc(N2CCOCC2)cc(-n2ccc(-c3cnc4ccccn34)n2)n1` [Compound 283, (R)-2-(4-(3-(imidazo[1,2-a]pyridin-3-yl)-1H-pyrazol-1-yl)-6-morpholinopyrimidin-2-yl)-2-methoxyethan-1-ol], 100 to 5000 nM; under `CO[C@H](CO)c1nc(N2CCOCC2)cc(-n2nc(-c3c[nH]c4ncccc34)cc2C)n1` [Compound 284, (S)-2-methoxy-2-(4-(5-methyl-3-(1H-pyrrolo[2,3-b]pyridin-3-yl)-1H-pyrazol-1-yl)-6-morpholinopyrimidin-2-yl)ethan-1-ol], 10 to 100 nM. The same measure, in the same setting: then `CO[C@@H](CO)c1nc(N2CCOCC2)cc(-n2nc(-c3c[nH]c4ncccc34)cc2C)n1` [Compound 285, (R)-2-methoxy-2-(4-(5-methyl-3-(1H-pyrrolo[2,3-b]pyridin-3-yl)-1H-pyrazol-1-yl)-6-morpholinopyrimidin-2-yl)ethan-1-ol], with 10 to 100 nM. The compound `CO[C@H](CO)c1nc(N2CCOCC2)cc(-n2nc(-c3c[nH]c4cnccc34)cc2C)n1` [Compound 286, (S)-2-methoxy-2-(4-(5-methyl-3-(1H-pyrrolo[2,3-c]pyridin-3-yl)-1H-pyrazol-1-yl)-6-morpholinopyrimidin-2-yl)ethan-1-ol] yielded a 50% inhibitory concentration (IC50) of 100 to 5000 nM. Same read-out and setting: then `CO[C@@H](CO)c1nc(N2CCOCC2)cc(-n2nc(-c3c[nH]c4cnccc34)cc2C)n1` [Compound 287, (R)-2-methoxy-2-(4-(5-methyl-3-(1H-pyrrolo[2,3-c]pyridin-3-yl)-1H-pyrazol-1-yl)-6-morpholinopyrimidin-2-yl)ethan-1-ol], with 100 to 5000 nM; and `CO[C@H](CO)c1nc(N2CCOCC2)cc(-n2nc(-c3c[nH]c4ccncc34)cc2C)n1` [Compound 288, (S)-2-methoxy-2-(4-(5-methyl-3-(1H-pyrrolo[3,2-c]pyridin-3-yl)-1H-pyrazol-1-yl)-6-morpholinopyrimidin-2-yl)ethan-1-ol], with 100 to 5000 nM; and `CO[C@@H](CO)c1nc(N2CCOCC2)cc(-n2nc(-c3c[nH]c4ccncc34)cc2C)n1` [Compound 289, (R)-2-methoxy-2-(4-(5-methyl-3-(1H-pyrrolo[3,2-c]pyridin-3-yl)-1H-pyrazol-1-yl)-6-morpholinopyrimidin-2-yl)ethan-1-ol], with 100 to 5000 nM. Same read-out and setting: under `CO[C@H](CO)c1nc(N2CCOCC2)cc(-n2nc(-c3c[nH]c4cccnc34)cc2C)n1` [Compound 290, (S)-2-methoxy-2-(4-(5-methyl-3-(1H-pyrrolo[3,2-b]pyridin-3-yl)-1H-pyrazol-1-yl)-6-morpholinopyrimidin-2-yl)ethan-1-ol] stands 100 to 5000 nM; under `CO[C@@H](CO)c1nc(N2CCOCC2)cc(-n2nc(-c3c[nH]c4cccnc34)cc2C)n1` [Compound 291, (R)-2-methoxy-2-(4-(5-methyl-3-(1H-pyrrolo[3,2-b]pyridin-3-yl)-1H-pyrazol-1-yl)-6-morpholinopyrimidin-2-yl)ethan-1-ol], 100 to 5000 nM. Still for that read-out and setting: then `CCc1cc(-c2ccccc2)nn1-c1cc(N2CCOCC2)nc([C@@H](CO)OC)n1` [Compound 294, (S)-2-(4-(5-ethyl-3-phenyl-1H-pyrazol-1-yl)-6-morpholinopyrimidin-2-yl)-2-methoxyethan-1-ol], with 10 to 100 nM; and `CCc1cc(-c2ccccc2)nn1-c1cc(N2CCOCC2)nc([C@H](CO)OC)n1` [Compound 295, (R)-2-(4-(5-ethyl-3-phenyl-1H-pyrazol-1-yl)-6-morpholinopyrimidin-2-yl)-2-methoxyethan-1-ol], with 10 to 100 nM; and `Cn1cc(CCOc2nc(N3CCOCC3)cc(-n3ccc(C4=CC(C)(C)CC=C4)n3)n2)cn1` [Compound 296, 4-(6-(3-(3,3-dimethylcyclohexa-1,5-dien-1-yl)-1H-pyrazol-1-yl)-2-(2-(1-methyl-1H-pyrazol-4-yl)ethoxy)pyrimidin-4-yl)morpholine], with 100 to 5000 nM. Compound `Cc1cccc(-c2ccn(-c3cc(N4CCOCC4)c4c(ccn4C)n3)n2)c1` [Compound 333, 4-(1-methyl-5-(3-(m-tolyl)-1H-pyrazol-1-yl)-1H-pyrrolo[3,2-b]pyridin-7-yl)morpholine] showed a 50% inhibitory concentration (IC50) of 100 to 5000 nM.

The next test deals with T1, PIKFYVE. As to the kind of experiment: Cell-based Pikfyve inhibition activity assay (EEA1 staining, mean vesicle size in BJ fibroblast cells). The following applies: Table 4, 4 hours treatment, 3 μM Apilimod = 100% inhibition. On the procedure:
BJ fibroblast cells were obtained from American Type Cell Culture (ATCC, CRL-2522). The cells were maintained in DMEM (Genesee Scientific, 25-500) supplemented with 10% fetal bovine serum (Genesee Scientific, 25-514) and 1% penicillin-streptomycin (Genesee Scientific, 25-512) at 37° C. in the atmosphere 5% CO2. BJ fibroblasts were plated into black flat clear bottom 96-well plates (Grenier, 655090) at a density of 3×10^3 per well and were allowed to attach in culture for 8-10 hours before drug treatment. Drugs were tested at eleven doses separated by 3 fold from 0.03 nM to 3000 nM in triplicates for 4 hours at 37° C. After 4 hours, treatment media was aspirated and replaced with 4% Paraformaldehyde (Electron Microscopy Science, 15714-S) and cells were fixed at room temperature for 5 minutes. 4% PFA in wells were then discarded and replaced with a blocking buffer consisting of 1×PBS with 0.1% Tween (Sigma-Aldrich, P1754-500), 5% Donkey Serum (Jackson ImmunoResearch, 017-000-121), and 1% BSA (Caisson Labs, B005-50GM) and incubated at room temperature for 30 minutes. Blocking buffer was then discarded and replaced with a primary EEA1 antibody (Fisher Scientific, BD610457) in a 1:1000 dilution and incubated at 4° C. overnight. Following overnight incubation, plates were washed with 1×PBS three times and incubated with secondary antibody Donkey anti-Mouse IgG, Alexa Fluor 555 (Invitrogen, A31570) (1:1000 dilution) for 1 hour at room temperature in the dark. Subsequently cell plates were washed with 1×PBS three times and can be stored at 4° C. if not being proceeding with imaging procedure.
Images were acquired with 20× objective (ImageXpress MicroConfocal, Molecular Devices) creating z-series of 5 planes (5 steps, […]), 16 tiles per well. Images were then analyzed using a custom CellProfiler protocol to obtain mean vesicle size. The mean vesicle size from 16 images was used as the output for each well. The mean vesicle size from 0.5% DMSO treated condition was considered as having no Pikfyve inhibition activity and the 3 μM Apilimod treated condition was considered as having 100% inhibition activity. The mean vesicle size was converted to % inhibition activity and the data was fitted to a dose-response curve using log(inhibitor) vs normalized response-variable slope using GraphPad Prism.
Usually EC50 stands for the concentration giving half of the maximal effect. Higher therefore signals weaker potency. The compound `COC(CO)c1nc(N2CCOCC2)cc(-n2ccc(-c3cccc(C)c3)n2)n1` (racemic) [Compound 156, 2-methoxy-2-(4-morpholino-6-(3-(m-tolyl)-1H-pyrazol-1-yl)pyrimidin-2-yl)ethan-1-ol] registered an EC50 of 100 to 500 nM. As for `Cc1cccc(-c2ccn(-c3cc(N4CCOCC4)nc(OC[C@@H](O)c4ccccc4)n3)n2)c1` (single isomer, unassigned) [Compound 57], the EC50 lay in the range of 20 to 100 nM.
